Assay results from US8183251B2, “Hydantoin compounds and pharmaceutical compositions thereof” (AstraZeneca AB, priority 2006, dated 2012).
Counter-ions that a name gives are not always drawn.

Columns and labels:
Type in all cases: biochemical
[1] = target: T1, human MMP19 catalytic domain (Homo sapiens, UniProt Q99542); assay: Isolated enzyme assay MMP19 (fluorogenic substrate); settings: IC50 (MMP19) divided by IC50 (MMP12)
T1 construct: Recombinant human MMP19 catalytic domain; made in house
Description: Recombinant human MMP19 catalytic domain may be expressed and purified as described by Parkar A. A. et al, (2000), Protein Expression and Purification, 20:152. The purified enzyme can be used to monitor inhibitors of activity as follows: MMP19 (40 ng/ml final concentration) is incubated for 120 minutes at 35° C. with the synthetic substrate Mca-Pro-Leu-Ala-Nva-Dpa-Ala-Arg-NH2 (5 μM) in assay buffer (0.1M “Tris-HCl” (trade mark) buffer, pH 7.3 containing 0.1M NaCl, 20 mM CaCl2, 0.020 mM ZnCl and 0.05% (w/v) “Brij 35” (trade mark) detergent) in the presence (5 concentrations) or absence of inhibitors. Activity is determined by measuring the fluorescence at λex 320 nm and λem 405 nm. Percent inhibition is calculated as follows: % Inhibition is equal to the [Fluorescenceplus inhibitor−Fluorescencebackground] divided by the [Fluorescenceminus inhibitor−Fluorescencebackground].

[2] = target: T2, human MMP12 catalytic domain (Homo sapiens, UniProt P39900); assay: Isolated enzyme assay MMP12 (fluorogenic substrate); settings: recombinant human MMP12 catalytic domain, 60 minutes at room temperature; read-out: hMMP12 IC50
T2 construct: Recombinant human MMP12 catalytic domain; made in house
T2 sequence (P39900 106-263 limits assumed): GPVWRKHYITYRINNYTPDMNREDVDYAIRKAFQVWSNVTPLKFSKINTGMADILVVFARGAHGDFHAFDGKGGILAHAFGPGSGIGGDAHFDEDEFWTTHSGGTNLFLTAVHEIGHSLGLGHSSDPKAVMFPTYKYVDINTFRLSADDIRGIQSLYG
Description: Recombinant human MMP12 catalytic domain may be expressed and purified as described by Parkar A. A. et al, (2000), Protein Expression and Purification, 20, 152. The purified enzyme can be used to monitor inhibitors of activity as follows: MMP12 (50 ng/ml final concentration) is incubated for 60 minutes at room temperature with the synthetic substrate Mca-Pro-Cha-Gly-Nva-His-Ala-Dpa-NH2 (10 μM) in assay buffer (0.1M “Tris-HCl” (trade mark) buffer, pH 7.3 containing 0.1M NaCl, 20 mM CaCl2, 0.020 mM ZnCl and 0.05% (w/v) “Brij 35” (trade mark) detergent) in the presence (10 concentrations) or absence of inhibitors. Activity is determined by measuring the fluorescence at λex 320 nm and λem 405 nm. Percent inhibition is calculated as follows: % Inhibition is equal to the [Fluorescenceplus inhibitor−Fluorescencebackground] divided by the [Fluorescenceminus inhibitor−Fluorescencebackground].

[3] = target: T3, human MMP14 catalytic domain (Homo sapiens, UniProt P50281); assay: Isolated enzyme assay MMP14 (fluorogenic substrate); settings: IC50 (MMP14) divided by IC50 (MMP12)
T3 construct: Recombinant human MMP14 catalytic domain; made in house
Description: Recombinant human MMP14 catalytic domain may be expressed and purified as described by Parkar A. A. et al, (2000), Protein Expression and Purification, 20, 152. The purified enzyme can be used to monitor inhibitors of activity as follows: MMP14 (10 ng/ml final concentration) is incubated for 60 minutes at room temperature with the synthetic substrate Mca-Pro-Cha-Gly-Nva-His-Ala-Dpa-NH2 (10 μM) in assay buffer (0.1M “Tris-HCl” (trade mark) buffer, pH 7.5 containing 0.1M NaCl, 20 mM CaCl2, 0.020 mM ZnCl and 0.05% (w/v) “Brij 35” (trade mark) detergent) in the presence (5 concentrations) or absence of inhibitors. Activity is determined by measuring the fluorescence at λex 320 nm and λem 405 nm. Percent inhibition is calculated as follows: % Inhibition is equal to the [Fluorescenceplus inhibitor−Fluorescencebackground] divided by the [Fluorescenceminus inhibitor−Fluorescencebackground].

[4] = target: T4, hMMP8 (Homo sapiens, UniProt P22894); assay: Isolated enzyme assay MMP8 (fluorogenic substrate); settings: IC50 (MMP8) divided by IC50 (MMP12)
T4 construct: purchased Calbiochem
T4 sequence (P22894 101-467): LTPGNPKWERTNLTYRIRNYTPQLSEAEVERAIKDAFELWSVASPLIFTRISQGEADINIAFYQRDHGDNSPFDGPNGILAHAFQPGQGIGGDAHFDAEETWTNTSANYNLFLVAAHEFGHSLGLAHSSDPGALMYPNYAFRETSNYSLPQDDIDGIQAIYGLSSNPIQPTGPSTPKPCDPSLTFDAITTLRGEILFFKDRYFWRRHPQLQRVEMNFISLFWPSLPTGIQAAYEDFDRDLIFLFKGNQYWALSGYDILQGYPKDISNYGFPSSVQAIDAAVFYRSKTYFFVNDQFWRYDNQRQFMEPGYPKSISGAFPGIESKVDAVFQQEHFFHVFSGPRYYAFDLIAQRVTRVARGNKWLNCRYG
Description: Purified pro-MMP8 is purchased from Calbiochem. The enzyme (at 10 μg/ml) is activated by p-amino-phenyl-mercuric acetate (APMA) at 1 mM for 2.5 h, 35° C. The activated enzyme can be used to monitor inhibitors of activity as follows: MMP8 (200 ng/ml final concentration) is incubated for 90 minutes at 35° C. (80% H2O) with the synthetic substrate Mca-Pro-Cha-Gly-Nva-His-Ala-Dpa-NH2 (12.5 μM) in assay buffer (0.1M “Tris-HCl” (trade mark) buffer, pH 7.5 containing 0.1M NaCl, 30 mM CaCl2, 0.040 mM ZnCl and 0.05% (w/v) “Brij 35” (trade mark) detergent) in the presence (10 concentrations) or absence of inhibitors. Activity is determined by measuring the fluorescence at λex 320 nm and λem 405 nm. Percent inhibition is calculated as follows: % Inhibition is equal to the [Fluorescenceplus inhibitor−Fluorescencebackground] divided by the [Fluorescenceminus inhibitor−Fluorescencebackground].

[5] = tested on: human MMP9 catalytic domain; assay: Isolated enzyme assay MMP9 (fluorogenic substrate); settings: IC50 (MMP9) divided by IC50 (MMP12)
Description: Recombinant human MMP9 catalytic domain was expressed and then purified by Zn chelate column chromatography followed by hydroxamate affinity column chromatography. The enzyme can be used to monitor inhibitors of activity as follows: MMP9 (5 ng/ml final concentration) is incubated for 30 minutes at RT with the synthetic substrate Mca-Pro-Cha-Gly-Nva-His-Ala-Dpa-NH2 (5 μM) in assay buffer (0.1M “Tris-HCl” (trade mark) buffer, pH 7.3 containing 0.1M NaCl, 20 mM CaCl2, 0.020 mM ZnCl and 0.05% (w/v) “Brij 35” (trade mark) detergent) in the presence (10 concentrations) or absence of inhibitors. Activity is determined by measuring the fluorescence at λex 320 nm and λem 405 nm. Percent inhibition is calculated as follows: […]
% Inhibition is equal to the [Fluorescenceplus inhibitor−Fluorescencebackground] divided by the [Fluorescenceminus inhibitor−Fluorescencebackground].
A protocol for testing against other matrix metalloproteinases, including MMP9, using expressed and purified pro MMP is described, for instance, by C. Graham Knight et al., (1992) FEBS Lett., 296 (3), 263-266.

T1 sequence (Q99542 98-256 limits assumed): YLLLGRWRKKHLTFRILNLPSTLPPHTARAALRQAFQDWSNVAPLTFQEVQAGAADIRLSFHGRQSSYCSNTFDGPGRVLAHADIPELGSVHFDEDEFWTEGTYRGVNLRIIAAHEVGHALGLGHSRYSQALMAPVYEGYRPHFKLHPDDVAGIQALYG

Selectivity for inhibition of hMMP12 over: hMMP19 [1] | IC50 [2] | Selectivity for inhibition of hMMP12 over: hMMP14 [3] | Selectivity for inhibition of hMMP12 over: hMMP8 [4] | Selectivity for inhibition of hMMP12 over: hMMP9 [5] | Structure (SMILES)
>2882 | 8.3 nM | >3560 | >1168 | >795 | CN(Cc1ccc(Oc2cnc(C(F)(F)F)nc2)cc1)S(=O)(=O)C[C@@]1(C2CC2)NC(=O)NC1=O [Example 4, 1-[(4S)-4-Cyclopropyl-2,5-dioxoimidazolidin-4-yl]-N-methyl-N-[(4-{[2-(trifluoromethyl)pyrimidin-5-yl]oxy}phenyl)methyl]methanesulfonamide]
>525 | 19 nM | >525 | 320 | >525 | CN(Cc1ccc(Oc2cncnc2)cc1)S(=O)(=O)C[C@@]1(C2CC2)NC(=O)NC1=O [Example 1, 1-[(4S)-4-Cyclopropyl-2,5-dioxoimidazolidin-4-yl]-N-methyl-N-{[4-(pyrimidin-5-yloxy)phenyl]methyl}methanesulfonamide trifluoroacetic acid salt]
>2320 | 4.3 nM | >2320 | 2120 | 1440 | CN(Cc1ccc(Oc2cnc(C3CC3)nc2)cc1)S(=O)(=O)C[C@@]1(C2CC2)NC(=O)NC1=O [Example 2, 1-[(4S)-4-Cyclopropyl-2,5-dioxoimidazolidin-4-yl]-N-({4-[(2-cyclopropylpyrimidin-5-yl)oxy]phenyl}methyl)-N-methylmethanesulfonamide]
 | 63.7 nM |  | 657 | 1530 | O=C1NC(=O)[C@](CS(=O)(=O)NCc2ccc(Oc3cnc(C(F)(F)F)nc3)cc2)(C2CC2)N1 [Example 6, 1-[(4S)-4-Cyclopropyl-2,5-dioxoimidazolidin-4-yl]-N-[(4-{[2-(trifluoromethyl)pyrimidin-5-yl]oxy}benzyl)]methane sulfonamide]
>2800 | 14 nM | >7142 | >628 | 857 | Cc1ncc(Oc2ccc(CN(C)S(=O)(=O)C[C@@]3(C4CC4)NC(=O)NC3=O)cc2)cn1 [Example 3, 1-[(4S)-4-Cyclopropyl-2,5-dioxoimidazolidin-4-yl]-N-methyl-N-({4-[(2-methylpyrimidin-5-yl)oxy]phenyl}methyl)methanesulfonamide]
>330 | 151 nM | >330 | 202 | 261 | C[C@]1(CS(=O)(=O)NCc2ccc(Oc3ccccc3)cc2)NC(=O)NC1=O [reference compound]
>588 | 17 nM | >588 | 417 | 523 | CCc1ncc(Oc2ccc(CN(C)S(=O)(=O)C[C@@]3(C4CC4)NC(=O)NC3=O)cc2)cn1 [Example 5, 1-[(4S)-4-Cyclopropyl-2,5-dioxoimidazolidin-4-yl]-N-({4-[(2-ethylpyrimidin-5-yl)oxy]phenyl}methyl)-N-methylmethanesulfonamide]
